{"source": "paper PMC7287031", "about": "(Pharmacology Research & Perspectives, 2020)", "key": {"[1]": {"assay": "Tissue distribution by quantitative whole-body autoradiography (QWBA)", "format": "in vivo", "settings": "rat QWBA", "method": "ADME studies (including QWBA in pigmented and non‐pigmented rats) using radiolabeled ribociclib were conducted in rat and dog. Relevant institutional and national guides for the care and use of laboratory animals were followed.\nQWBA studies were conducted with the tritium label in Hanover Wistar and partially pigmented Long‐Evans rats. A further QWBA study was conducted with the carbon‐14 label in male Long Evans rats in order to support the dosimetry calculation for the human ADME study. Briefly, 40‐µm thick lengthwise dehydrated whole body sections were exposed for 1 day to Fuji BAS III imaging plates (Fuji Photo Film Co., Ltd., J‐Tokyo) in a lead‐shielded box and room temperature, and scanned in a Fuji BAS 5000 phosphor imager at a 50‐µm scanning step. Concentrations of total radiolabeled components in the tissues were determined by comparative densitometry and digital analysis of the autoradiogram; blood samples of known radioactivity concentrations processed under the same conditions as the samples to analyze were used as calibrators."}, "Rat milk excretion study": {"assay": "Rat milk excretion study", "format": "in vivo", "settings": "female, milk (relative to plasma), lactating rats, read-out: milk exposure (AUCinf) relative to plasma exposure", "method": "Metabolite profiling was conducted on plasma, urine, bile, and feces samples in the rat and dog ADME studies, and further metabolite profiling on plasma and milk was conducted in a dedicated rat milk excretion study.\nPlasma samples obtained from these studies were extracted with equal volumes of acetonitrile. Additional extractions of the protein pellet with acetonitrile and/or acetone were conducted as needed to maximize radioactivity recovery. Feces samples were initially extracted with two to four volumes of acetonitrile. Additional extractions of the pellet following centrifugation and removal of supernatant were conducted with acetonitrile and/or acetone as needed to maximize radioactivity recovery. Urine and bile samples were analyzed directly following centrifugation. Radioactivity recoveries following the centrifugation step were measured by LSC. Milk samples were extracted with two volumes of acetonitrile, following centrifugation and removal of supernatant, the pellets were re‐suspended in 100 µL of water and re‐extracted with 200 µL acetonitrile."}, "[2]": {"assay": "Kinetic analysis of ribociclib metabolite formation in HLM and enzyme contribution", "format": "in vitro ADME, human", "settings": "both sexes, human, pooled human liver microsomes, pH 7.4; HLM, sum of metabolite formation; read-out: CLint, Total of all pathways", "method": "(§1) In vitro incubations were carried out in 100‐mM potassium phosphate buffer (pH 7.4) and 5‐mM MgCl2 with a total volume of 200 µL. Substrate and either human liver microsomes (HLM, BD Biosciences, mixed gender pool of n = 50) or recombinant human enzymes (BD Biosciences) were added and pre‐incubated for 3 minutes at 37°C. The reaction was started by addition of a fresh solution of NADPH (1 mmol/L final concentration). The samples were incubated at 37°C with agitation of 500 rpm. For incubations with CYP2A6, CYP2C9, CYP2C18, and CYP4A11, the phosphate buffer was replaced by TRIS buffer (100 mmol/L, pH 7.4) and for flavin‐containing monooxygenases (FMOs), a glycine buffer (50 mM, pH 9.5) was used.\n(§2) The enzymatic reaction was stopped and the protein was precipitated by addition of an equal volume of methanol. […] The supernatant was withdrawn. Aliquots were analyzed by LSC and the supernatant was diluted with water to obtain a final solution containing less than 20% of the organic solvent. For samples of low substrate concentration, supernatants were evaporated to dryness under nitrogen, then re‐suspended in water containing less than 20% of methanol. Samples were analyzed by HPLC combined with radiodetection.\n(§3) Km and Vmax parameters were calculated by using SigmaPlot Version 8.0, Enzyme Kinetics module Version 1.1 software (SPSS Science Inc, Chicago, IL, USA). The intrinsic clearance was calculated by the equation: CLint = Vmax/Km.\n(§4) The intrinsic clearances (Vmax/Km) of each pathway were determined by enzyme kinetics."}, "CYP3A4": {"tested_on": "CYP3A4", "assay": "Kinetic analysis of ribociclib metabolite formation in HLM and enzyme contribution", "format": "in vitro ADME, human", "settings": "both sexes, human, pooled human liver microsomes, pH 7.4; HLM; read-out: CLint attributed to CYP3A4", "method": "as §1, §2, §3, §4"}, "FMO3": {"tested_on": "FMO3", "assay": "Kinetic analysis of ribociclib metabolite formation in HLM and enzyme contribution", "format": "in vitro ADME, human", "settings": "both sexes, human, pooled human liver microsomes, pH 7.4; HLM; read-out: CLint attributed to FMO3", "method": "as §1, §2, §3, §4"}, "[3]": {"assay": "Human ADME study: quantitative metabolite profiling in urine and feces", "format": "in vivo", "settings": "pooled excreta n=6, from metabolite patterns (radio profiling)", "method": "Average pools across the six subjects were also created by combining equal percentages (of total urine and feces excreted over the time interval) of the individual subject pools. Urine pools were analyzed directly for metabolite profiling (column recovery of a representative sample was measured), whereas feces pools were subjected to extraction. Specifically, to each aliquot of feces homogenate, two volumes of acetonitrile were added. After centrifugation, the pellet was washed further with an additional two volumes of acetonitrile. […] All washes were combined, evaporated under nitrogen, and reconstituted with a solution of 15‐mM ammonium formate (pH 3.5). This feces extract reconstitute was analyzed for metabolite profiling. Combined extraction and reconstitution (overall recovery) and column recovery were measured. […] The HPLC column used was a Phenomenex Kinetex, C18, 250 × 4.6 mm, equipped with a pre‐column of the same type (2.1 × 4.6 mm), which was placed in a column oven at 40°C. […] The HPLC gradient was as follows: initial conditions were 5% mobile phase B for 1 minute, then increased to 20% at 10 minutes post injection where it was held (isocratic) up to 20 minutes. […] The post column flow was directed to the fraction collector operated in a time‐slice mode and containing 96‐well Lumaplates (Perkin Elmer). The plates were dried at room temperature and the radioactivity was measured using a microplate scintillation counter model TopCount NXT (Perkin Elmer) instrument (up to 3 × 100‐minute counting time). […] Metabolites were identified during the same injections using data generated by the high‐resolution mass spectrometer. The molecular ions and key fragments of each drug‐related component were determined. Key fragments for each metabolite were derived from their product ion mass spectra and were used to determine the metabolite structures. Where possible, structural assignments were supported by exact mass measurement, comparison with synthetic standards and/or Hydrogen/Deuterium (H/D) exchange LC‐MS(/MS)."}}, "data": [{"smiles": "CN(C)C(=O)c1cc2cnc(Nc3ccc(N4CCNCC4)cn3)nc2n1C1CCCC1", "note": "[ribociclib, Ribociclib]", "values": [{"measurement": "time of last measurable concentration (total radioactivity)", "setting": "[1]; 52 of 58 tissues investigated", "result": "≤ 48", "unit": "h"}, {"measurement": "time of last measurable concentration (total radioactivity)", "setting": "[1]; eyes and meninges, last observation time point", "result": 840, "unit": "h"}, {"measurement": "tissue distribution of total radioactivity", "setting": "[1]; intravenous or oral dose", "result": "marked distribution into the extravascular compartment, except for brain"}, {"measurement": "time of last measurable concentration (total radioactivity)", "setting": "[1]; lymph nodes, preputial gland, testis", "result": 168, "unit": "h"}, {"measurement": "Kp", "setting": "Rat milk excretion study", "result": 3.6}, {"measurement": "microsomal CLint", "setting": "[2]", "result": 31.5, "unit": "µL/min/mg"}, {"measurement": "microsomal CLint", "setting": "CYP3A4", "result": 23.3, "unit": "µL/min/mg"}, {"measurement": "microsomal CLint", "setting": "FMO3", "result": 8.19, "unit": "µL/min/mg"}, {"measurement": "Excretion (% of dose), Feces", "setting": "[3]", "result": "17.3 % of dose"}]}]}
